Data from patent publication US10111890B2, “9-aminomethyl minocycline compounds and uses thereof” (Paratek Pharmaceuticals, Inc., priority 2016, dated 2018).

Legend:
[1] = tested on: ABSSSI known or suspected to be due to Gram-positive pathogens; assay: Phase 3 oral omadacycline vs oral linezolid in ABSSSI: Early Clinical Response 48-72 hours after first dose; assay type: in vivo, human; settings: for Early Clinical Success, %: micro-mITT, % of N1
[2] = Phase 3 oral omadacycline vs oral linezolid in ABSSSI: safety (adverse events, TEAEs, vital signs, ECG, laboratory); assay type: in vivo; settings: safety population
Source text: An Adverse Event (AE) is any untoward, undesired, or unplanned event in the form of signs, symptoms, disease, or laboratory or physiologic observations occurring in a person given a test article or in a clinical study. […] An AE includes, but is not limited to, the following: any clinically significant worsening of a preexisting condition; an AE occurring from overdose of a test article, whether accidental or intentional; overdose is a dose greater than that specified in the protocol; an AE occurring from abuse (e.g., use for nonclinical reasons) of a test article; and an AE that has been associated with the discontinuation of the use of a test article.
The severity (or intensity) of an AE was classified using the following criteria:
Concerning relatedness, causality (i.e., whether there was a reasonable possibility that test article caused the event) for all AEs and SAEs was assessed.
Safety variables include the incidence rate of AEs, change in vital signs, ECG parameters and laboratory test results obtained during the course of the study. For safety analyses, subjects were analyzed according to the treatment actually received.
Summary tables were provided for all treatment-emergent adverse events (TEAEs). A TEAE is defined as an AE with a start date and time on or after the first dose of test article. […] Additional tabulations provide summaries by SOC and PT of subjects experiencing SAEs, severe TEAEs, TEAEs judged to be related to test article, TEAEs leading to discontinuation of test article, and TEAEs of special interest.
The following variables were analyzed descriptively: Vital signs (systolic and diastolic BP, pulse rate, body temperature, respiratory rate), including change from Screening by visit; Clinically notable vital signs (meeting predefined criteria as specified in the SAP) by visit. Subjects with notable vital signs data were listed.
ECG data (RR interval, PR interval, QRS interval, QTc, QTc Bazett's Correction Formula [QTcB], and QTc Fridericia's Correction Formula [QTcF]) was summarized descriptively at each scheduled evaluation, and for the overall worst post-Screening value. Changes from Screening at each visit that a 12-lead ECG was obtained was also provided. An outlier analysis was conducted based on the worst post-Screening value.
The following variables were analyzed descriptively: Laboratory variables by visit; Change from Screening of laboratory variables by visit; and Clinically notable laboratory values (meeting predefined criteria specified in the SAP) by visit.

[3] = 48-72 hours after first dose, mITT population
[4] = Cellulitis/erysipelas, actual type, 48-72 hours, mITT
[5] = Cellulitis/erysipelas, as randomized, 48-72 hours, mITT
[6] = Major Abscess, actual type, 48-72 hours, mITT
[7] = Major Abscess, as randomized, 48-72 hours, mITT
[8] = Wound Infection, actual type, 48-72 hours, mITT
[9] = Wound Infection, as randomized, 48-72 hours, mITT

## CC(=O)NCC1CN(c2ccc(N3CCOCC3)c(F)c2)C(=O)O1 (stereo not shown) [Linezolid, N-[[3-(3-fluoro-4-morpholinophenyl)-2-oxooxazolidin-5-yl]methyl]acetamide, reference compound]
[1]; [3]
  Early Clinical Response: Clinical Failure: 32 (8.9) n (%)
  Early Clinical Response: Clinical Failure or Indeterminate: 63 (17.5) n (%)
  Early Clinical Response: Indeterminate: 31 (8.6) n (%)
[1]; 48-72 hours after first dose, mITT population (N = 360 per arm)
  Early Clinical Response: Clinical Success: 297 (82.5) n (%)
[1]; Cellulitis/erysipelas, actual type of infection, 48-72 hours, mITT
  Early Clinical Response: Clinical Success: 65 (77.4) n (%)
[1]; [4]
  Early Clinical Response: Clinical Failure: 12 (14.3) n (%)
  Early Clinical Response: Clinical Failure or Indeterminate: 19 (22.6) n (%)
  Early Clinical Response: Indeterminate: 7 (8.3) n (%)
[1]; [5]
  Early Clinical Response: Clinical Failure: 12 (14.3) n (%)
  Early Clinical Response: Clinical Failure or Indeterminate: 19 (22.6) n (%)
  Early Clinical Response: Indeterminate: 7 (8.3) n (%)
[1]; Cellulitis/erysipelas, type of infection as randomized, 48-72 hours, mITT
  Early Clinical Response: Clinical Success: 65 (77.4) n (%)
[1]; Major Abscess, actual type of infection, 48-72 hours, mITT
  Early Clinical Response: Clinical Success: 55 (88.7) n (%)
[1]; [6]
  Early Clinical Response: Clinical Failure: 4 (6.5) n (%)
  Early Clinical Response: Clinical Failure or Indeterminate: 7 (11.3) n (%)
  Early Clinical Response: Indeterminate: 3 (4.8) n (%)
[1]; [7]
  Early Clinical Response: Clinical Failure: 4 (6.5) n (%)
  Early Clinical Response: Clinical Failure or Indeterminate: 7 (11.3) n (%)
  Early Clinical Response: Indeterminate: 3 (4.8) n (%)
[1]; Major Abscess, type of infection as randomized, 48-72 hours, mITT
  Early Clinical Response: Clinical Success: 55 (88.7) n (%)
[1]; Wound Infection, actual type of infection, 48-72 hours, mITT
  Early Clinical Response: Clinical Success: 177 (82.7) n (%)
[1]; [8]
  Early Clinical Response: Clinical Failure: 16 (7.5) n (%)
  Early Clinical Response: Clinical Failure or Indeterminate: 37 (17.3) n (%)
  Early Clinical Response: Indeterminate: 21 (9.8) n (%)
[1]; [9]
  Early Clinical Response: Clinical Failure: 16 (7.5) n (%)
  Early Clinical Response: Clinical Failure or Indeterminate: 37 (17.3) n (%)
  Early Clinical Response: Indeterminate: 21 (9.8) n (%)
[1]; Wound Infection, type of infection as randomized, 48-72 hours, mITT
  Early Clinical Response: Clinical Success: 177 (82.7) n (%)
[1]; baseline pathogen Clostridium perfringens, 48-72 hours after first dose
  Early Clinical Success, %: (100.0) %
[1]; baseline pathogen Enterobacter cloacae, 48-72 hours after first dose
  Early Clinical Success, %: (83.3) %
[1]; baseline pathogen Enterococcus faecalis VRE, 48-72 hours after first dose
  Early Clinical Success, %: (100.0) %
[1]; baseline pathogen Enterococcus faecalis VSE, 48-72 hours after first dose
  Early Clinical Success, %: (60.0) %
[1]; baseline pathogen Enterococcus faecalis, 48-72 hours after first dose
  Early Clinical Success, %: (66.7) %
[1]; baseline pathogen Enterococcus faecium VSE, 48-72 hours after first dose
  Early Clinical Success, %: (100.0) %
[1]; baseline pathogen Enterococcus faecium, 48-72 hours after first dose
  Early Clinical Success, %: (100.0) %
[1]; baseline pathogen Escherichia coli, 48-72 hours after first dose
  Early Clinical Success, %: (100.0) %
[1]; baseline pathogen Finegoldia magna, 48-72 hours after first dose
  Early Clinical Success, %: (0.0) %
[1]; baseline pathogen Klebsiella pneumoniae, 48-72 hours after first dose
  Early Clinical Success, %: (83.3) %
[1]; baseline pathogen MRSA, 48-72 hours after first dose
  Early Clinical Success, %: (88.8) %
[1]; baseline pathogen MSSA, 48-72 hours after first dose
  Early Clinical Success, %: (79.2) %
[1]; baseline pathogen Prevotella denticola, 48-72 hours after first dose
  Early Clinical Success, %: (100.0) %
[1]; baseline pathogen Prevotella melaninogenica, 48-72 hours after first dose
  Early Clinical Success, %: (100.0) %
[1]; baseline pathogen Staphylococcus aureus, 48-72 hours after first dose
  Early Clinical Success, %: (83.3) %
[1]; baseline pathogen Streptococcus agalactiae, 48-72 hours after first dose
  Early Clinical Success, %: (50.0) %
[1]; baseline pathogen Streptococcus anginosus group, 48-72 hours after first dose
  Early Clinical Success, %: (80.0) %
[1]; baseline pathogen Streptococcus anginosus, 48-72 hours after first dose
  Early Clinical Success, %: (85.0) %
[1]; baseline pathogen Streptococcus constellatus, 48-72 hours after first dose
  Early Clinical Success, %: (100.0) %
[1]; baseline pathogen Streptococcus intermedius, 48-72 hours after first dose
  Early Clinical Success, %: (75.0) %
[1]; baseline pathogen Streptococcus pyogenes, 48-72 hours after first dose
  Early Clinical Success, %: (81.3) %
[2]
  Subjects who died: 1 (0.3) n (%)
  Subjects with at Least One Adverse Events (AE): 140 (38.1) n (%)
  Subjects with at Least One Drug-Related Serious TEAE: 1 (0.3) n (%)
  Subjects with at Least One Drug-Related TEAE: 52 (14.2) n (%)
  Subjects with at Least One Serious TEAE: 5 (1.4) n (%)
  Subjects with at Least One Serious TEAE leading to Death: 1 (0.3) n (%)
